What was measured:
Experiment in all cases: combination Emax (second highest fraction inhibited in the dose matrix, 72 h); higher = more inhibition; extreme values may be limits of the assay
[1] = system: WSU-NHL (B-Cell Non-Hodgkin's Lymphoma)
Procedure, shortened: (§1)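 Cell lines grown in DMEM/F12 or RPMI with 10% FBS were plated in 1536-well plates and held 24 hours at 37°C, 5% CO2 before 72 hours of exposure to two-drug dose matrices, with DMSO typically at 0.2%. CellTiter-Glo 2.0 luminescence gave viability, which was converted to inhibition. Vehicle wells were set to 0 and blank wells to 1. Combination Emax is the second-highest inhibition in the matrix, and Bliss excess is the observed combination effect minus the expected EA + EB − EA·EB, where EA and EB are the single-agent effects.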

[2] = system: OV-56 (Ovarian Carcinoma)
Procedure, shortened: as §1

[3] = system: BE-13 (T-Lymphoblastic Leukemia)
Procedure, shortened: as §1

MPP-89 (Mesothelioma) = system: MPP-89 (Mesothelioma)
Procedure, shortened: as §1

[4] = system: BFTC-909 (Kidney Carcinoma)
Procedure, shortened: as §1

[5] = system: YAPC (Pancreatic Carcinoma)
Procedure, shortened: as §1

[6] = system: LS-123 (Colorectal Carcinoma)
Procedure, shortened: as §1

GAMG (Glioblastoma) = system: GAMG (Glioblastoma)
Procedure, shortened: as §1

[7] = system: HuH-7 (Hepatocellular Carcinoma)
Procedure, shortened: as §1

[8] = system: SNU-449 (Hepatocellular Carcinoma)
Procedure, shortened: as §1

[9] = system: NCI-H1568 (Lung Adenocarcinoma)
Procedure, shortened: as §1

LOXIMVI (Melanoma) = system: LOXIMVI (Melanoma)
Procedure, shortened: as §1

[10] = system: KYAE-1 (Esophageal Adenocarcinoma)
Procedure, shortened: as §1

BPH-1 (Non-Cancerous) = system: BPH-1 (Non-Cancerous)
Procedure, shortened: as §1

[11] = system: KMRC-20 (Kidney Carcinoma)
Procedure, shortened: as §1

[12] = system: SW1710 (Bladder Carcinoma)
Procedure, shortened: as §1

KS-1 (Glioblastoma) = system: KS-1 (Glioblastoma)
Procedure, shortened: as §1

[13] = system: HH (T-Cell Non-Hodgkin's Lymphoma)
Procedure, shortened: as §1

[14] = system: CAL-33 (Oral Cavity Carcinoma)
Procedure, shortened: as §1

[15] = system: ALL-PO (B-Lymphoblastic Leukemia)
Procedure, shortened: as §1

Row | Structure (SMILES) | combination Emax [1] | combination Emax [2] | combination Emax [3] | combination Emax (MPP-89 (Mesothelioma)) | combination Emax [4] | combination Emax [5] | combination Emax [6] | combination Emax (GAMG (Glioblastoma)) | combination Emax [7] | combination Emax [8] | combination Emax [9] | combination Emax (LOXIMVI (Melanoma)) | combination Emax [10] | combination Emax (BPH-1 (Non-Cancerous)) | combination Emax [11] | combination Emax [12] | combination Emax (KS-1 (Glioblastoma)) | combination Emax [13] | combination Emax [14] | combination Emax [15]
1 | COc1cccc(OCCCN)c1-c1cc(Nc2cnc(C#N)cn2)n[nH]1 [Prexasertib] + CN(C)CCCOc1ccc(-c2ccc3ncc4c(c3c2)n(C2CCOCC2)c(=O)n4C)cn1 [AZD0156] (first compound max 1 µM, 7x7, partner max 1 µM) | 1 | 0.895 | 0.965 | 0.724 | 0.936 | 0.559 | 0.752 | 0.843 | 0.347 | 0.326 | 0.538 | 0.862 | 0.594 | 0.235 | 0.924 | 0.794 | 0.581 | 0.703 | 0.807 | 0.979
2 | CN(C)CCCOc1ccc(-c2ccc3ncc4c(c3c2)n(C2CCOCC2)c(=O)n4C)cn1 [AZD0156] + C[C@@H]1COCCN1C2=NC(=NC(=C2)C3(CC3)[S@](=N)(=O)C)C4=C5C=CNC5=NC=C4 [AZD6738] (first compound max 1 µM, 7x7, partner max 10 µM) | 0.998 | 0.741 | 0.723 | 0.63 | 0.813 | 0.294 | 0.644 | 0.422 | 0.325 | 0.176 | 0.49 | 0.908 | 0.0979 | 0.427 | 0.65 | 0.509 | 0.561 | 0.427 | 0.782 | 0.922
3 | CC1(C)CCC(CN2CCN(c3ccc(C(=O)NS(=O)(=O)c4ccc(NCC5CCOCC5)c([N+](=O)[O-])c4)c(Oc4cnc5[nH]ccc5c4)c3)CC2)=C(c2ccc(Cl)cc2)C1 [Venetoclax] + C[C@@H](Nc1cc(F)cc(F)c1)c1cc(C(=O)N(C)C)cc2c(=O)cc(N3CCOCC3)oc12 [AZD8186] (first compound max 1 µM, 7x7, partner max 3 µM) | 1 | 0.0859 | 0.375 | 0.236 | 0.203 | 0.0625 | 0.256 | 0.453 | 0.144 | 0.172 | 0.0798 | 0.129 | 0.554 | 0.31 | 0.245 | 0.194 | 0.341 | 0.434 | 0.149 | 0.703
4 | NC1(C(=O)N[C@@H](CCO)c2ccc(Cl)cc2)CCN(c2ncnc3[nH]ccc23)CC1 [Capivasertib] + COc1nnc2ccc(N3CCC(c4ccc(OCCN5CCN(C)C(=O)[C@H]5C)cc4)CC3)nn12 [AZD5153] (first compound max 10 µM, 7x7, partner max 1 µM) | 1 | 0.41 | 0.644 | 0.495 | 0.678 | 0.309 | 0.418 | 0.724 | 0.518 | 0.224 | 0.305 | 0.952 | 0.223 | 0.691 | 0.398 | 0.587 | 0.755 | 0.439 | 0.749 | 0.9
5 | Cc1c2c(nn1C)CSCc1cc(n(C)n1)CSc1cc(c3ccccc3c1)OCCCc1c(C(=O)O)n(C)c3c-2c(Cl)ccc13 [AZD5991] + Cc1cc2ncnn2cc1Nc1ncc2c(n1)n(C1CCOCC1)c(=O)n2C [AZD7648] (first compound max 1 µM, 7x7, partner max 10 µM) | 0.952 | 0.189 | 0.406 | 0.343 | 0.292 | 0.248 | 0.399 | 0.382 | 0.185 | 0.238 | 0.232 | 0.467 | 0.194 | 0.409 | 0.295 | 0.177 | 0.253 | 0.71 | 0.302 | 1
6 | Cn1cnc2c(F)c(Nc3ccc(Br)cc3Cl)c(C(=O)NOCCO)cc21 [Selumetinib] + CCN(CCO)CCCOc1ccc2c(Nc3cc(CC(=O)Nc4cccc(F)c4)[nH]n3)ncnc2c1 [AZD2811] (first compound max 10 µM, 7x7, partner max 1 µM) | 0.642 | 0.116 | 0.735 | 0.204 | 0.314 | 0.212 | 0.425 | 0.52 | 0.293 | 0.221 | 0.207 | 0.683 | 0.0661 | 0.624 | 0.29 | 0.214 | 0.298 | 0.173 | 0.653 | 1
7 | NC1(C(=O)N[C@@H](CCO)c2ccc(Cl)cc2)CCN(c2ncnc3[nH]ccc23)CC1 [Capivasertib] + CC(=O)c1c(C)c2cnc(Nc3ccc(N4CCNCC4)cn3)nc2n(C2CCCC2)c1=O [Palbociclib] (first compound max 10 µM, 7x7, partner max 10 µM) | 0.899 | 0.41 | 0.507 | 0.382 | 0.704 | 0.281 | 0.364 | 0.596 | 0.23 | 0.379 | 0.357 | 0.688 | 0.162 | 0.518 | 0.372 | 0.447 | 0.5 | 0.426 | 0.499 | 0.688

Reference: the supplement of paper PMC11061612
